Assay results as given in publication PMC12649290 (Journal of Clinical Pharmacology, 2025).

Columns and labels:
[1] = Population pharmacokinetic (popPK) model developed on OSIBOOST trial plasma concentrations (NONMEM); type: in vivo, human; conditions: for CL/F, Population Estimate (RSE%) / V/F, Population Estimate (RSE%): allometrically scaled on bodyweight of 70 kg; for CL/F, Population Estimate (RSE%): exponent 0.75; for V/F, Population Estimate (RSE%): exponent 1; for CL/F, Bootstrap Median / V/F, Bootstrap Median: non-parametric bootstrap n = 1000
Description: The data used in this study were obtained from the OSIBOOST clinical trial (NCT03858491).[15] The trial was approved by an independent medical ethics committee (METC19‐013) and was conducted in accordance with the 1964 Helsinki declaration (and its amendments). All patients provided written informed consent. Patients were included from one academic medical center and a specialized tertiary referral center in the Netherlands (the Maastricht University Medical Centre and the Antoni van Leeuwenhoek hospital). […] After 21 days of concomitant treatment with cobicistat (to reach steady state), PK samples (pre‐dose, 0.5‐1.5 h, 2.5‐3.5 h, 7‐8 h) of the concomitant therapy were collected.
PK data were analyzed with NONMEM version 7.4.4, Perl‐speaks‐NONMEM (PsN) version 5.4.0, R version 4.4.2, and Rstudio version 2024.09.0. The packages xpose, tidyvpc, mrgsolve, and ggplot2 in R were used for plotting and simulations.
A base popPK model was developed with the data from osimertinib monotherapy, using the first‐order conditional estimation method with interaction (FOCE‐I). […] Parameter changes were tested with stepwise inclusion and backward elimination. A decrease of more than −3.84 ΔOFV (P < .05) was considered a significant improvement when a single parameter was added to nested models. For backward elimination, a stricter criterion of 6.63 ΔOFV (P < .01) was used when removing a parameter from the popPK model.[25] One‐compartment and two‐compartment models were tested to best describe the data. Exponential between subject variability (BSV) on the popPK parameters was explored in a step‐wise approach. Residual error was tested as an additional, proportional, and a combined error model.
Developed popPK models were evaluated based on successful minimization, change in objective function value (ΔOFV), numerical diagnostics, standard goodness of fit (GOF) plots, and conditional weighted residuals (CWRES) plots. The performance of the developed popPK models was assessed with prediction‐corrected visual predictive check (pcVPC) and normalized prediction distribution error (NPDE) plots.[27] For the final popPK model, the median parameter estimate and 95% confidence interval (CI) were obtained non‐parametric bootstrap procedure (n = 1000) and can be considered as an internal validation.[28], [29] Relative standard errors (RSE%) of estimated parameters were acceptable when <30%.[30] A condition number was considered acceptable if […].[30] Both η‐shrinkage and ε‐shrinkage were considered appropriate if <30%.[31]

[2] = cited from earlier work
[3] = cited from earlier work; remark: listed apart in the source

Compound | CL/F, Population Estimate (RSE%) [1] | V/F, Population Estimate (RSE%) [1] | Coefficient of variation (CV%) of the BSV on CL/F ([1]; in vivo) [%] | CL/F, Bootstrap Median [1] [L/h] | V/F, Bootstrap Median [1] [L] | Increase of osimertinib exposure (mean AUC0‐24h) by cobicistat ([2]; 11 patients with Cmin,SS ≤ 195 µg/L, noncompartmental analysis) [%] | Adverse events of cobicistat boosted osimertinib ([2]; 11 patients with low osimertinib exposure) | Increase in osimertinib exposure when combined with itraconazole [3] [%]
C=CC(=O)Nc1cc(Nc2nccc(-c3cn(C)c4ccccc34)n2)c(OC)cc1N(C)CCN(C)C [osimertinib] | 19.0 (8.5%) L/h | 990 (29%) L | 21.5 | 19.0 | 966 |  |  | 
CC(C)c1nc(CN(C)C(=O)N[C@@H](CCN2CCOCC2)C(=O)N[C@H](CC[C@H](Cc2ccccc2)NC(=O)OCc2cncs2)Cc2ccccc2)cs1 [cobicistat] |  |  |  |  |  | 50 | without any grade ≥3 adverse events (AEs) or new safety signals | 
C=CC(=O)Nc1cc(Nc2nccc(-c3c[nH]c4ccccc34)n2)c(OC)cc1N(C)CCN(C)C [AZ5104] | 47.3 (7.8%) L/h | 184 (48.5%) L |  | 46.3 | 181 |  |  | 
CCC(C)n1ncn(-c2ccc(N3CCN(c4ccc(OCC5COC(Cn6cncn6)(c6ccc(Cl)cc6Cl)O5)cc4)CC3)cc2)c1=O (stereo not drawn) [itraconazole] |  |  |  |  |  |  |  | 24
